Results published in patent US6863907B2, “Antiallergic composition and antipruritic composition” (Sunstar, Inc., priority 1999, dated 2005).

Tested on: human basophilic leukemia cell line KU812
Experiment: Histamine release suppression test using human basophilic leukemia cell line KU812
Format: cell-based
Conditions: KU812 cells, final concentration 0.01%, CRA-1 15 μg/ml stimulation, N=4
Description: Histamine Release Suppression Test Using Human Basophilic Leukemia Cell Line KU812
A human basophilic leukemia cell line KU812 was grown in a RPMI 1640 medium (GIBCO) supplemented with 10% fetal bovine serum (treated at 56° C. for 30 min), at 37° C. in 5% CO2. The medium was washed by addition of a histamine release buffer (IMMUNOTECH) followed by centrifugation (1500 rpm, 5 min, 4° C.) and removal of the supernatant. The washing procedure was carried out twice. Then, a histamine release buffer was added to prepare a cell suspension having a cell density of 10^5 cells/ml. […] After centrifugation (2000 rpm, 10 min, 4° C.), the histamine content of the supernatant was measured using a Histamine EIA Kit (IMMUNOTECH) (N=4). Then, the mean and standard deviation of the measured values were obtained from the calibration curve, and the histamine release suppression rate (%) was calculated according to the following equation: [formula] wherein: • A represents the histamine content (n M) released from cells treated with the test substance/reference substance and CRA-1; • B represents the histamine content (n M) released from untreated cells; and • C represents the histamine content (n M) released from cells treated with CRA-1 only.

## CNC[C@H](O)c1ccc(O)c(O)c1 [epinephrine]
  histamine release suppression rate: 52±16%
